Activity calls are given as the source filed them. The rule behind the calls is not given here.
Key:
NSCLC [1] = assay: Downregulation of RPE gene expression in human NSCLC cells by PCR array; type: functional, cell-based
A549 [2] = assay: Anti-angiogenesis activity in human A549 cells assessed as inhibition of VEGF secretion at 1 to 1.5 uM by ELISA analysis; type: functional, cell-based; details: dose 1-1.5 µM
NSCLC [3] = assay: Downregulation of PHKB gene expression in human NSCLC cells by PCR array; type: functional, cell-based
NSCLC [4] = assay: Upregulation of PHKG1 gene expression in human NSCLC cells by PCR array; type: functional, cell-based
NSCLC [5] = assay: Downregulation of ENO3 gene expression in human NSCLC cells by PCR array; type: functional, cell-based
NSCLC [6] = assay: Downregulation of ACLY gene expression in human NSCLC cells by PCR array; type: functional, cell-based
NSCLC [7] = assay: Downregulation of HK2 gene expression in human NSCLC cells by PCR array; type: functional, cell-based
NSCLC [8] = assay: Upregulation of PDHB gene expression in human NSCLC cells by PCR array; type: functional, cell-based
NSCLC [9] = assay: Downregulation of RPIA gene expression in human NSCLC cells by PCR array; type: functional, cell-based
NSCLC [10] = assay: Downregulation of GBE1 gene expression in human NSCLC cells by PCR array; type: functional, cell-based
NSCLC [11] = assay: Downregulation of PRPS2 gene expression in human NSCLC cells by PCR array; type: functional, cell-based
[12] = Cytotoxicity against human HLMVEC cells assessed as reduction in cell viability incubated for 24 hrs by MTT assay; type: toxicity, cell-based
NSCLC [13] = assay: Upregulation of PYGM gene expression in human NSCLC cells by PCR array; type: functional, cell-based
NSCLC [14] = assay: Upregulation of FBP1 gene expression in human NSCLC cells by PCR array; type: functional, cell-based
NSCLC [15] = assay: Downregulation of ALDOB gene expression in human NSCLC cells by PCR array; type: functional, cell-based
NSCLC [16] = assay: Downregulation of GSK3A gene expression in human NSCLC cells by PCR array; type: functional, cell-based
NSCLC [17] = assay: Downregulation of GYS2 gene expression in human NSCLC cells by PCR array; type: functional, cell-based
A549 [18] = assay: Antitumor activity against human A549 cells xenografted in BALB/c nude mouse assessed as reduction of Ki67 expression level in tumor at 80 mg/kg,ip administered once a week for 3 weeks by immunohistochemistry analysis; type: functional, organism-based
NSCLC [19] = assay: Upregulation of RBKS gene expression in human NSCLC cells by PCR array; type: functional, cell-based
NCI-H1975 = assay: Induction of apoptosis in human NCI-H1975 cells assessed as increase in Cleaved-caspase3/Caspase3 ratio at 0.5 to 1.5 uM; type: functional, cell-based; details: dose 0.5-1.5 µM
A549 [20] = assay: Anti-angiogenic activity against human A549 cells assessed as downregulation of FGF-1 expression at 0.5 to 1.5 uM by Western blot analysis; type: functional, cell-based; details: dose 0.5-1.5 µM
NSCLC [21] = assay: Upregulation of DLST gene expression in human NSCLC cells by PCR array; type: functional, cell-based
NSCLC [22] = assay: Upregulation of INSRR gene expression in human NSCLC cells by PCR array; type: functional, cell-based
NSCLC [23] = assay: Downregulation of PGK2 gene expression in human NSCLC cells by PCR array; type: functional, cell-based
NSCLC [24] = assay: Upregulation of H6PD gene expression in human NSCLC cells by PCR array; type: functional, cell-based
NSCLC [25] = assay: Upregulation of GYS1 gene expression in human NSCLC cells by PCR array; type: functional, cell-based
NSCLC [26] = assay: Upregulation of FBP2 gene expression in human NSCLC cells by PCR array; type: functional, cell-based
NSCLC [27] = assay: Upregulation of PGM2 gene expression in human NSCLC cells by PCR array; type: functional, cell-based
NSCLC [28] = assay: Upregulation of PCK2 gene expression in human NSCLC cells by PCR array; type: functional, cell-based
NSCLC [29] = assay: Upregulation of PDP2 gene expression in human NSCLC cells by PCR array; type: functional, cell-based
NSCLC [30] = assay: Downregulation of PYGL gene expression in human NSCLC cells by PCR array; type: functional, cell-based
NSCLC [31] = assay: Downregulation of PGLS gene expression in human NSCLC cells by PCR array; type: functional, cell-based
NSCLC [32] = assay: Upregulation of ALDOC gene expression in human NSCLC cells by PCR array; type: functional, cell-based
NSCLC [33] = assay: Upregulation of PHKG2 gene expression in human NSCLC cells by PCR array; type: functional, cell-based
NSCLC [34] = assay: Downregulation of PDPR gene expression in human NSCLC cells by PCR array; type: functional, cell-based
NSCLC [35] = assay: Upregulation of PCK1 gene expression in human NSCLC cells by PCR array; type: functional, cell-based
NSCLC [36] = assay: Upregulation of IDH2 gene expression in human NSCLC cells by PCR array; type: functional, cell-based
NSCLC [37] = assay: Downregulation of PRPS1L1 gene expression in human NSCLC cells by PCR array; type: functional, cell-based
NSCLC [38] = assay: Downregulation of PDHA1 gene expression in human NSCLC cells by PCR array; type: functional, cell-based
NSCLC [39] = assay: Upregulation of SDHD gene expression in human NSCLC cells by PCR array; type: functional, cell-based
NSCLC [40] = assay: Downregulation of ACTB gene expression in human NSCLC cells by PCR array; type: functional, cell-based
Chorioallantoic membrane = assay: Anti-angiogenesis activity in chicken embryo chorioallantoic membrane at 0.5 to 1.5 uM incubated for 5 days by CAM assay; type: functional, tissue-based; details: Gallus gallus, dose 0.5-1.5 µM, time 5.0 day
NSCLC [41] = assay: Downregulation of ACO1 gene expression in human NSCLC cells by PCR array; type: functional, cell-based
NSCLC [42] = assay: Downregulation of IDH3A gene expression in human NSCLC cells by PCR array; type: functional, cell-based
HLMVEC [43] = assay: Anti-angiogenic activity against human HLMVEC cells assessed as inhibition of VEGFR2 phosphorylation at 0.5 to 1.5 uM by Western blot analysis; type: functional, cell-based; details: dose 0.5-1.5 µM
NSCLC [44] = assay: Downregulation of PGM2 gene expression in human NSCLC cells by PCR array; type: functional, cell-based
NSCLC [45] = assay: Downregulation of HPRT1 gene expression in human NSCLC cells by PCR array; type: functional, cell-based
NSCLC [46] = assay: Downregulation of LDHA gene expression in human NSCLC cells by PCR array; type: functional, cell-based
HLMVEC [47] = assay: Anti-angiogenic activity against human HLMVEC cells assessed as inhibition of tubule formation at 0.5 to 1.5 uM and measured after 12 hrs by microscopic analysis; type: functional, cell-based; details: dose 0.5-1.5 µM
NSCLC [48] = assay: Downregulation of ENO1 gene expression in human NSCLC cells by PCR array; type: functional, cell-based
A549 [49] = assay: Anti-angiogenic activity against human A549 cells assessed as downregulation of ET-1 expression at 0.5 to 1.5 uM by Western blot analysis; type: functional, cell-based; details: dose 0.5-1.5 µM
NSCLC [50] = assay: Downregulation of PRPS1 gene expression in human NSCLC cells by PCR array; type: functional, cell-based
NSCLC [51] = assay: Downregulation of IDH3B gene expression in human NSCLC cells by PCR array; type: functional, cell-based
NSCLC [52] = assay: Upregulation of HK3 gene expression in human NSCLC cells by PCR array; type: functional, cell-based
NSCLC [53] = assay: Upregulation of AGL gene expression in human NSCLC cells by PCR array; type: functional, cell-based
NSCLC [54] = assay: Upregulation of SLC2A2 gene expression in human NSCLC cells by PCR array; type: functional, cell-based

Compound: Cc1cccc(/C=N/NC(=O)c2cccc(NS(=O)(=O)c3c[nH]c(=O)[nH]c3=O)c2)c1
- Activity (NSCLC [1]): Active
- Activity (A549 [2]): Active
- Activity (NSCLC [3]): Active
- Activity (NSCLC [4]): Active
- Activity (NSCLC [5]): Active
- Activity (NSCLC [6]): Active
- Activity (NSCLC [7]): Active
- Activity (NSCLC [8]): Active
- Activity (NSCLC [9]): Active
- Activity (NSCLC [10]): Active
- Activity (NSCLC [11]): Active
- CC50 at 24 h [12]: > 600 µM
- Activity (NSCLC [13]): Active
- Activity (NSCLC [14]): Active
- Activity (NSCLC [15]): Active
- Activity (NSCLC [16]): Active
- Activity (NSCLC [17]): Active
- Activity (A549 [18]): Active
- Activity (NSCLC [19]): Active
- Activity (NCI-H1975): Active
- Activity (A549 [20]): Active
- Activity (NSCLC [21]): Active
- Activity (NSCLC [22]): Active
- Activity (NSCLC [23]): Active
- Activity (NSCLC [24]): Active
- Activity (NSCLC [25]): Active
- Activity (NSCLC [26]): Active
- Activity (NSCLC [27]): Active
- Activity (NSCLC [28]): Active
- Activity (NSCLC [29]): Active
- Activity (NSCLC [30]): Active
- Activity (NSCLC [31]): Active
- Activity (NSCLC [32]): Active
- Activity (NSCLC [33]): Active
- Activity (NSCLC [34]): Active
- Activity (NSCLC [35]): Active
- Activity (NSCLC [36]): Active
- Activity (NSCLC [37]): Active
- Activity (NSCLC [38]): Active
- Activity (NSCLC [39]): Active
- Activity (NSCLC [40]): Active
- Activity (Chorioallantoic membrane): Active
- Activity (NSCLC [41]): Active
- Activity (NSCLC [42]): Active
- Activity (HLMVEC [43]): Active
- Activity (NSCLC [44]): Active
- Activity (NSCLC [45]): Active
- Activity (NSCLC [46]): Active
- Activity (HLMVEC [47]): Active
- Activity (NSCLC [48]): Active
- Activity (A549 [49]): Active
- Activity (NSCLC [50]): Active
- Activity (NSCLC [51]): Active
- Activity (NSCLC [52]): Active
- Activity (NSCLC [53]): Active
- Activity (NSCLC [54]): Active

Source: ChEMBL document CHEMBL5620429, “Discovery of novel thymidylate synthase (TS) inhibitors that influence cancer angiogenesis and metabolic reprogramming in NSCLC cells” (Eur J Med Chem, 2023)
